≈ marks a conversion by molar mass, not a printed value.
Legend:
[1] = tested on: Helicobacter pylori standard strain ATCC 43526 (NCTC 11916); test: Antibacterial Test 1: MIC against Helicobacter pylori, agar plate dilution method (anaerobic MIC method); type: cell-based; conditions: 72 h, Hp ATCC 43526, agar plate dilution, 37° C., 3 days
E. faecalis RIMD 3336001 = test: Antibacterial Test 2: MIC, agar dilution method (aerobic MIC method); type: cell-based; conditions: Enterococcus faecalis, RIMD3336001
Method: (§1) Then, tested were antibacterial activities of the typical compounds of the present invention against gram-positive and -negative bacteria other than Hp. MICs of the typical compounds of the present invention were determined in substantial accordance with agar dilution method (aerobic MIC method) based on standard method of the Japan Society Chemotherapy.
(§2) The respective test compound were dissolved in dimethyl sulfoxide (DMSO) and serially diluted twofold to prepare solutions of the compounds with concentration of 0.05-100 μg/ml. The solutions of the compounds were respectively added to sensitive-disk agar medium-N (manufactured by NISSUI SEIYAKU) to prepare agar plates for determination.
(§3) The below-mentioned strains freezingly conserved at -135° C. were thawed in a warm bath (40° C.), cultured in a sensitivity-determining bouillon at 37° C. for 18-20 hours, and then diluted with the above-mentioned medium to prepare about 1.0×10^6 CFU/ml of bacterial suspension.
(§4) Inoculation was made by 5 μl by multi-inoculator (manufactured by SAKUMA SEISAKUSHO). Culturing was made under the same conditions as those of the pre-culturing and the MIC (unit: μg/ml) was determined by observing whether the bacteria grew or not.

P. aeruginosa IFO 3445 = test: as above; type: cell-based; conditions: Pseudomonas aeruginosa, IFO3445
Method: as §1, §2, §3, §4

B. subtilis PCI 219 = test: as above; type: cell-based; conditions: Bacillus subtilis, PCI219
Method: as §1, §2, §3, §4

M. luteus ATCC 9341 = test: as above; type: cell-based; conditions: Micrococcus luteus, ATCC9341
Method: as §1, §2, §3, §4

S. aureus FDA 209P = test: as above; type: cell-based; conditions: Staphylococcus aureus, FDA209P
Method: as §1, §2, §3, §4

E. coli NIHJ JC-2 = test: as above; type: cell-based; conditions: Escherichia coli, NIHJJC2
Method: as §1, §2, §3, §4

K. pneumoniae PCI 602 = test: as above; type: cell-based; conditions: Klebsiella pneumoniae, PCI602
Method: as §1, §2, §3, §4

[2] = tested on: seven gram-positive or -negative strains; test: Antibacterial Test 2: MIC against each of the seven strains; type: cell-based; conditions: each of S. aureus, M. luteus, E. faecalis, B. subtilis, E. coli, K. pneumoniae, P. aeruginosa; read-out: MIC of each of the above-mentioned seven strains
Method: as §1, §2, §3, §4

peptic ulcer = conditions: up to; cited from earlier work

| MIC [1] [µg/mL] | MIC (E. faecalis RIMD 3336001) [µg/mL] | MIC (P. aeruginosa IFO 3445) [µg/mL] | MIC (B. subtilis PCI 219) [µg/mL] | MIC (M. luteus ATCC 9341) [µg/mL] | MIC (S. aureus FDA 209P) [µg/mL] | MIC (E. coli NIHJ JC-2) [µg/mL] | MIC (K. pneumoniae PCI 602) [µg/mL] | SMILES | MIC [2] [µg/mL] | cure rate (peptic ulcer) |
| --- | --- | --- | --- | --- | --- | --- | --- | --- | --- | --- |
| 0.05 (≈ 0.13 µM) | > 100 | > 100 | > 100 | > 100 | > 100 | > 100 | > 100 | O=C(CSc1ccnc2ccccc12)c1ccc(OCc2ccccc2)cc1 [Compound 1, 4-[2-(4-Benzyloxyphenyl)-2-oxoethylthio]quinoline] |  |  |
| 0.2 (≈ 0.607 µM) | > 100 | > 100 | > 100 | > 100 | > 100 | > 100 | > 100 | O=C(CSc1ccnc2ccccc12)c1ccc2ccccc2c1 [Compound 2, 4-[2-(2-Naphtyl)-2-oxoethylthio]quinoline] |  |  |
| 0.025 (≈ 0.0745 µM) | > 100 | > 100 | > 100 | > 100 | > 100 | > 100 | > 100 | CC(C)(C)c1ccc(C(=O)CSc2ccnc3ccccc23)cc1 [Compound 5, 4-[2-(4-tert-Butylphenyl)-2-oxoethylthio]quinoline] |  |  |
| 0.0031 (≈ 0.00699 µM) | > 100 | > 100 | > 100 | > 100 | > 100 | > 100 | > 100 | O=C(CSc1ccnc2ccccc12)c1ccc(N2CCOCC2)c(Br)c1 [Compound 10, 4-[2-(3-Bromo-4-morpholinophenyl)-2-oxoethylthio]-quinoline] |  |  |
| 0.0125 (≈ 0.0343 µM) | > 100 | > 100 | > 100 | > 100 | > 100 | > 100 | > 100 | O=C(CSc1ccnc2ccccc12)c1ccc(N2CCOCC2)cc1 [Compound 11, 4-[2-(4-Morpholinophenyl)-2-oxoethylthio]quinoline] |  |  |
| 0.0062 (≈ 0.0171 µM) | > 100 | > 100 | > 100 | > 100 | > 100 | > 100 | > 100 | O=C(CSc1ccnc2ccccc12)c1ccc(N2CCCCC2)cc1 [Compound 22, 4-[2-(4-Piperidinophenyl)-2-oxoethylthio]quinoline] |  |  |
| 0.025 (≈ 0.065 µM) | > 100 | > 100 | > 100 | > 100 | > 100 | > 100 | > 100 | O=C(CSc1ccnc2ccccc12)c1ccc(NCc2ccccc2)cc1 [Compound 23, 4-[2-(4-Benzylaminophenyl)-2-oxoethylthio]quinoline] |  |  |
| 0.1 (≈ 0.31 µM) | > 100 | > 100 | > 100 | > 100 | > 100 | > 100 | > 100 | CN(C)c1ccc(C(=O)CSc2ccnc3ccccc23)cc1 [Compound 26, 4-[2-(4-Dimethylaminophenyl)-2-oxoethylthio]quinoline] |  |  |
| 0.1 (≈ 0.324 µM) | > 100 | > 100 | > 100 | > 100 | 50 (≈ 162 µM) | > 100 | > 100 | CN(C)c1ccc(CCSc2ccnc3ccccc23)cc1 [Compound 27, 4-[2-(4-Dimethylaminophenyl)ethylthio]quinoline] |  |  |
| 0.1 (≈ 0.294 µM) | > 100 | > 100 | > 100 | > 100 | > 100 | > 100 | > 100 | CSc1ccc2c(SCc3ccc(N(C)C)cc3)ccnc2c1 [Compound 31, 4-(4-Dimethylaminobenzylthio)-7-methylthioquinoline] |  |  |
| 0.2 (≈ 0.64 µM) | > 100 | > 100 | > 100 | > 100 | > 100 | > 100 | > 100 | CSc1ccc2c(SCc3ccc(N)cc3)ccnc2c1 [Compound 34, 4-(4-Aminobenzylthio)-7-methylthioquinoline] |  |  |
| 0.0031 (≈ 0.00623 µM) |  |  |  |  |  |  |  | O=C(CSc1ccnc2ccccc12)c1ccc(N2CCN(C(=O)OCc3ccccc3)CC2)cc1 [Compound 78, 4-[2-[4-(4-Benzyloxycarbonyl-1-piperazinyl)phenyl)-2-oxoethylthio]quinoline] | > 100 |  |
| 0.0016 (≈ 0.00297 µM) |  |  |  |  |  |  |  | O=C(CSc1ccnc2ccccc12)c1ccc(N2CCN(C(=O)OCC(Cl)(Cl)Cl)CC2)cc1 [Compound 81, 4-[2-[4-[4-(2,2,2-Trichloroethoxycarbonyl)-1-piperazinyl]phenyl]-2-oxoethylthio]quinoline] | > 100 |  |
| 0.0008 (≈ 0.00184 µM) |  |  |  |  |  |  |  | CCOC(=O)N1CCN(c2ccc(C(=O)CSc3ccnc4ccccc34)cc2)CC1 [Compound 82, 4-[2-[4-(4-Ethoxycarbonyl-1-piperazinyl)phenyl]-2-oxoethylthio]quinoline] |  |  |
| 0.0008 (≈ 0.00179 µM) |  |  |  |  |  |  |  | C=CCOC(=O)N1CCN(c2ccc(C(=O)CSc3ccnc4ccccc34)cc2)CC1 [Compound 83, 4-[2-[4-(4-Allyloxycarbonyl-1-piperazinyl)phenyl]-2-oxoethylthio]guinoline] |  |  |
| 0.0016 (≈ 0.0034 µM) |  |  |  |  |  |  |  | CN(C)S(=O)(=O)N1CCN(c2ccc(C(=O)CSc3ccnc4ccccc34)cc2)CC1 [Compound 84, 4-[2-(4-(4-Dimethylsulfamoyl-1-piperazinyl)phenyl]-2-oxoethylthio]quinoline] |  |  |
| 0.0031 (≈ 0.0067 µM) |  |  |  |  |  |  |  | CC(C)(C)NC(=O)N1CCN(c2ccc(C(=O)CSc3ccnc4ccccc34)cc2)CC1 [Compound 85, 4-[2-[4-[4-(N-tert-Butylcarbamoyl)-1-piperazinyl]phenyl]-2-oxoethylthio]quinoline] |  |  |
| 0.0031 (≈ 0.00702 µM) |  |  |  |  |  |  |  | CS(=O)(=O)N1CCN(c2ccc(C(=O)CSc3ccnc4ccccc34)cc2)CC1 [Compound 86, 4-[2-[4-(4-Methanesulfonyl-1-piperazinyl)phenyl]-2-oxoethylthio]quinoline] |  |  |
| 0.05 (≈ 0.137 µM) | 0.2 (≈ 0.547 µM) | > 100 | 0.2 (≈ 0.547 µM) | ≤ 0.05 | 0.1 (≈ 0.274 µM) | 3.13 (≈ 8.57 µM) | 50 (≈ 137 µM) | CC1(C)S[C@@H]2[C@H](NC(=O)[C@H](N)c3ccc(O)cc3)C(=O)N2[C@H]1C(=O)O [amoxicillin, reference compound] |  |  |
|  |  |  |  |  |  |  |  | CN/C(=N/CCSCc1nc[nH]c1C)NC#N [cimetidine] |  | 80-90% |
| 0.025 (≈ 0.0334 µM) | 0.39 (≈ 0.521 µM) | > 100 | 0.2 (≈ 0.267 µM) | ≤ 0.05 | 0.1 (≈ 0.134 µM) | 100 (≈ 134 µM) | 6.25 (≈ 8.36 µM) | CC[C@H]1OC(=O)[C@H](C)[C@@H](O[C@H]2C[C@@](C)(OC)[C@@H](O)[C@H](C)O2)[C@H](C)[C@@H](O[C@@H]2O[C@H](C)C[C@H](N(C)C)[C@H]2O)[C@](C)(OC)C[C@@H](C)C(=O)[C@H](C)[C@@H](O)[C@]1(C)O [clarithromycin, reference compound] |  |  |
| 12.5 (≈ 33.8 µM) | > 100 | > 100 | > 100 | > 100 | > 100 | > 100 | > 100 | Cc1c(OCC(F)(F)F)ccnc1C[S+]([O-])c1nc2ccccc2[nH]1 (centres unmarked) [lansoprazole, reference compound] |  |  |
|  |  |  |  |  |  |  |  | COc1ccc2[nH]c([S+]([O-])Cc3ncc(C)c(OC)c3C)nc2c1 (centres unmarked) [omeprazole] |  | 80-90% |

| SMILES | MIC [1] [µg/mL] | MIC (E. faecalis RIMD 3336001) [µg/mL] | MIC (P. aeruginosa IFO 3445) [µg/mL] | MIC (B. subtilis PCI 219) [µg/mL] | MIC (M. luteus ATCC 9341) [µg/mL] | MIC (S. aureus FDA 209P) [µg/mL] | MIC (E. coli NIHJ JC-2) [µg/mL] | MIC (K. pneumoniae PCI 602) [µg/mL] | MIC [2] [µg/mL] | cure rate (peptic ulcer) |
| --- | --- | --- | --- | --- | --- | --- | --- | --- | --- | --- |
| CC(C)(C)OC(=O)N1CCN(c2ccc(C(=O)CSc3ccnc4ccccc34)cc2)CC1 [Compound 49, 4-[2-[4-(4-tert-Butoxycarbonyl-1-piperazinyl)phenyl]-2-oxoethylthio]quinoline] | 0.0008 (≈ 0.00173 µM) | > 100 | > 100 | > 100 | > 100 | > 100 | > 100 | > 100 |  |  |
| CC(C)(C)OC(=O)N1CCC(Nc2ccc(C(=O)CSc3ccnc4ccccc34)cc2Br)C1 (centres unmarked) [Compound 65, 4-[2-[3-Bromo-4-(1-tert-butoxycarbonyl-3-pyrrolidinylamino)phenyl]-2-oxoethylthio]quinoline] | 0.0031 (≈ 0.00571 µM) |  |  |  |  |  |  |  | > 100 |  |
| CC(C)(C)OC(=O)N1CCCN(c2ccc(C(=O)CSc3ccnc4ccccc34)cc2)CC1 [Compound 76, 4-[2-[4-(4-tert-Butoxycarbonyl-1-homopiperazinyl)phenyl]-2-oxoethylthio]quinoline] | 0.0062 (≈ 0.013 µM) |  |  |  |  |  |  |  |  |  |
| CC(C)[C@H](NC(=O)OC(C)(C)C)C(=O)N1CCN(c2ccc(C(=O)CSc3ccnc4ccccc34)cc2)CC1 [Compound 79, 4-[2-[4-[4-(N-tert-Butoxycarbonylvalyl)-1-piperazinyl]-phenyl]-2-oxoethylthio]quinoline] | 0.0016 (≈ 0.00284 µM) |  |  |  |  |  |  |  | > 100 |  |
| CC(C)(C)OC(=O)N1CCN(c2ccc(C(O)CSc3ccnc4ccccc34)cc2)CC1 (centres unmarked) [Compound 87, 4-[2-[4-(4-tert-Butoxycarbonyl-1-piperazinyl)phenyl]-2-hydroxyethylthio]quinoline] | 0.0008 (≈ 0.00172 µM) |  |  |  |  |  |  |  |  |  |

From US6057447A, “Quinoline sulfide derivatives” (Zenyaku Kogyo Kabushiki Kaisha, priority 1996, dated 2000)
